Target: acetylcholinesterase (AChE) (Electrophorus electricus, UniProt O42275)
Experiment: colorimetric AChE inhibition assay
Format: biochemical

Chain of acetylcholinesterase (AChE) (O42275 24-633): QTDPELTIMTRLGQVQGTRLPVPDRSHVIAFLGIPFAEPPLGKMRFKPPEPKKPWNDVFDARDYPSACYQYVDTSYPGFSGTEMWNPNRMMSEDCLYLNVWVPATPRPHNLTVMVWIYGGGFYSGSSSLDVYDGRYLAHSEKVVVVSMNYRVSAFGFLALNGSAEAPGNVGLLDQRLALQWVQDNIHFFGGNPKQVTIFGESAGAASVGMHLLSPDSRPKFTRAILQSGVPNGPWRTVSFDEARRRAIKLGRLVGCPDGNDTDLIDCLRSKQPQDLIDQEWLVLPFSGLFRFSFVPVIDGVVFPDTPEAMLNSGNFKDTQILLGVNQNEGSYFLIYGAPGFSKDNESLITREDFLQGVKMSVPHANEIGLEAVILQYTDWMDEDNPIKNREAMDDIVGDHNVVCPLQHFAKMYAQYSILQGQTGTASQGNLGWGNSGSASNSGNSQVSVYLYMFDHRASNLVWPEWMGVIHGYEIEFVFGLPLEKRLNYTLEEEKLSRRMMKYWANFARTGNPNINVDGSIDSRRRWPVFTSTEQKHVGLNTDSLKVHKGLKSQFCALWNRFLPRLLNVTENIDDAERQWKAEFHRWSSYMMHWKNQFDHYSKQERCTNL

With O=C([C@@H](F)[C@H](F)CCc1ccc2c(c1)OCO2)N1CCCCC1 [compound 2, analog 2] the IC50 was 51.7 µM.

Reference: article PMC7607426, “Vicinal difluorination as a C=C surrogate: an analog of piperine with enhanced solubility, photostability, and acetylcholinesterase inhibitory activity” (Beilstein Journal of Organic Chemistry, 2020)
